Series [1] has as its system Plasmodium falciparum. The experiment in a line: Antiplasmodial activity against chloroquine-sensitive Plasmodium falciparum 3D7 after 72 hrs by SYBR Green-1 dye-based fluorescence assay. The settings on record: 3D7, 72 h. It counts as functional, organism-based.
In series [2] the test system is Plasmodium falciparum. As to the kind of experiment: Antiplasmodial activity against chloroquine-resistant Plasmodium falciparum K1 after 72 hrs by SYBR Green-1 dye-based fluorescence assay. It counts as functional, organism-based. The settings on record: K1, 72 h.
Series [3] is described as follows: Selectivity index, ratio of IC50 for African green monkey Vero cells to IC50 for Plasmodium falciparum. It counts as toxicity, cell-based. To be noted: read-out: Ratio IC50.
The test system of series [4] is Plasmodium yoelii. As to the kind of experiment: Inhibition of beta-hematin formation in Plasmodium yoelii infected Swiss mouse plasma after 16 hrs. It counts as functional.
In series [5] the test system is Plasmodium yoelii. As to the kind of experiment: Antimalarial activity against chloroquine-resistant Plasmodium yoelii N-67 infected in Swiss mouse assessed as inhibition of parasitemia at 50 mg/kg, po qd for 4 days relative to control. To be noted: N-67, 96 h. In kind it is functional.
Series [6] relates to Plasmodium yoelii. The experiment in a line: Antimalarial activity against chloroquine-resistant Plasmodium yoelii N-67 infected in Swiss mouse assessed as inhibition of parasitemia at 100 mg/kg, po qd for 4 days relative to control. In kind it is functional. The settings on record: N-67, 96 h.
For series [7], the system named is Plasmodium yoelii. As to the kind of experiment: Antimalarial activity against chloroquine-resistant Plasmodium yoelii N-67 infected in Swiss mouse assessed as mouse survival at 100 mg/kg, po qd for 4 days measured on day 28. In kind it is functional, organism-based. Also noted: dose 100 mg/kg.
Series [8] concerns Plasmodium yoelii. As to the kind of experiment: Antimalarial activity against chloroquine-resistant Plasmodium yoelii N-67 infected in Swiss mouse assessed as mouse survival at 50 mg/kg, po qd for 4 days measured on day 28. It counts as functional, organism-based. Also noted: dose 50 mg/kg.

Values after ≈ are worked out from the molar mass of the structure shown. Active and inactive are the calls of the source. The calls are words filed in the database; no cut-off is given here.

For `CN1CCN(c2nc(Nc3ccc(Nc4ccnc5cc(Cl)ccc45)cc3)nc(Nc3cccc(F)c3)n2)CC1`, the IC50 worked out at 0.0228 µg/mL (≈ 0.041 µM) in the series on Plasmodium falciparum [1], 0.00154 µg/mL (≈ 0.00277 µM) in the series on Plasmodium falciparum [2] and 3.03 µg/mL (≈ 5.45 µM) with Plasmodium yoelii [4]. For the same molecule, the selectivity ratio in series [3] was 55.3. Moreover, in the series with Plasmodium yoelii [5], the inhibition in vivo at 50 mg/kg was 99.8%. Moreover, the inhibition in vivo at 100 mg/kg in the series with Plasmodium yoelii [6] amounted to 100%. Further, the outcome in the series with Plasmodium yoelii [7] and in the series with Plasmodium yoelii [8] was inactive.

`CCN1CCN(c2nc(Nc3ccc(Nc4ccnc5cc(Cl)ccc45)cc3)nc(N3CCOCC3)n2)CC1`: the IC50 was 0.00216 µg/mL (≈ 0.00396 µM) in the series with Plasmodium falciparum [1], 0.0147 µg/mL (≈ 0.0269 µM) with Plasmodium falciparum [2] and 4.17 µg/mL (≈ 7.64 µM) with Plasmodium yoelii [4]. Moreover, the selectivity ratio in series [3] turned out to be 431. Also, the inhibition in vivo at 50 mg/kg in the series on Plasmodium yoelii [5] is 93.5%. In the series on Plasmodium yoelii [6], the inhibition in vivo at 100 mg/kg was determined as 100%. Besides, the result in the series with Plasmodium yoelii [7] and in the series with Plasmodium yoelii [8] was inactive.

As for `CCN1CCN(c2nc(Nc3ccc(Nc4ccnc5cc(Cl)ccc45)cc3)nc(N3CCCc4ccccc43)n2)CC1`, the IC50 in the series on Plasmodium falciparum [1] was 0.0208 µg/mL (≈ 0.0352 µM); with Plasmodium falciparum [2], 0.0116 µg/mL (≈ 0.0197 µM); in the series with Plasmodium yoelii [4], 6.55 µg/mL (≈ 11.1 µM). Moreover, the selectivity ratio in series [3] was 36. Further, the inhibition in vivo at 50 mg/kg in the series with Plasmodium yoelii [5] stood at 77.8%. The inhibition in vivo at 100 mg/kg with Plasmodium yoelii [6] came to 99%. For the same molecule, the outcome with Plasmodium yoelii [7] and with Plasmodium yoelii [8] was inactive.

As a reminder, the IC50 is the concentration needed to halve the response being measured. For orientation: inhibition in vivo means the relative decrease from the control value, in per cent.

The record behind these values is ChEMBL document CHEMBL3217722, “Synthesis of hybrid 4-anilinoquinoline triazines as potent antimalarial agents, their in silico modeling and bioevaluation as Plasmodium falciparumtransketolase and -hematin inhibitors” (Medchemcomm, 2012).
